One series addresses Autotaxin (Homo sapiens, UniProt Q13822). Nature of the series: Inhibition of ATX lysoPLD (unknown origin) using 18:1 LPC as substrate assessed as reduction in choline release by HVA fluorescence based analysis.
Series [1] is described as follows: Drug uptake in iv dosed CD-1 mouse bone assessed as accumulation of radioactivity in bone measured after 30 to 60 mins post injection by PET imaging analysis. In kind it is ADME, organism-based, Bone element. Particulars: in vivo, time 30-60 min; call rule not given here.
Series [2] can be described thus: Drug uptake in iv dosed CD-1 mouse bone assessed as accumulation of radioactivity in bone measured after 60 mins post injection by PET imaging analysis. Particulars: in vivo, 1 h. The series is classed as ADME, organism-based, Bone element.
A short description of series [3]: Drug uptake in iv dosed CD-1 mouse bone assessed as accumulation of radioactivity in bone measured after 30 mins post injection by PET imaging analysis. The series is classed as ADME, organism-based, Bone element. Particulars: in vivo, 0.5 h.
Series [4] is described as follows: Drug uptake in iv dosed CD-1 mouse liver assessed as high radioactivity in liver measured up to 60 mins post injection by PET imaging analysis. In kind it is ADME, organism-based. Particulars: in vivo, 1 h.
A short description of series [5]: Drug uptake in iv dosed CD-1 mouse small intestine assessed as high radioactivity in small intestine measured up to 60 mins post injection by PET imaging analysis. In kind it is ADME, organism-based. Particulars: in vivo, 1 h.
The nature of series [6]: Drug uptake in iv dosed CD-1 mouse kidney assessed as high radioactivity in kidney measured up to 60 mins post injection by PET imaging analysis. Particulars: in vivo, 1 h. The series is classed as ADME, organism-based.
Series [7] can be described thus: Drug uptake in liver of LPS- induced CD-1 mouse model assessed as increase in signal of tracer in liver measured after 30 mins by autoradiography analysis relative to control. In kind it is ADME, tissue-based. Particulars: in vivo, 0.5 h.
A short description of series [8]: Ex vivo biodistribution in bone of iv dosed CD-1 mouse assessed as accumulation of radioactivity in bone measured after 15 to 60 min by PET imaging analysis. In kind it is ADME, organism-based, Bone element. Particulars: time 15-60 min.
Series [9] can be described thus: Drug uptake in liver of LPS- induced CD-1 mouse model assessed as increase in signal of tracer in inflammed liver by measuring AUC (30 to 60 mins) relative to control. In kind it is ADME, tissue-based. Particulars: in vivo, time 30-60 min.
Series [10] is described as follows: Drug uptake in iv dosed CD-1 mouse bone measured after 30 min by PET imaging analysis. Particulars: in vivo, 0.5 h. In kind it is ADME, organism-based, Bone element.
Series [11] is described as follows: Drug uptake in iv dosed CD-1 mouse brain measured up to 60 mins post injection by PET imaging analysis. Particulars: in vivo, 1 h. The series is classed as ADME, organism-based.

The term Ki denotes a dissociation constant, usually derived from enzyme kinetics or from competition with a known ligand. With `CCc1nc2ccc(N3CCN(CC(=O)N4CCCC(F)C4)CC3)cn2c1N(C)c1nc(-c2ccc(F)cc2)c(C#N)s1` (stereo not drawn), at Autotaxin, the Ki came to 15 nM.

Turning to `CCc1nc2ccc(N3CCN(CC(=O)N4CCC(F)CC4)CC3)cn2c1N(C)c1nc(-c2ccc(F)cc2)c(C#N)s1`, the Ki at Autotaxin is 15 nM.

As for `CCc1nc2ccc(N3CCN(CC(=O)N4CCC(CF)C4)CC3)cn2c1N(C)c1nc(-c2ccc(F)cc2)c(C#N)s1` (stereo not drawn), the Ki on Autotaxin stood at 7 nM.

As to `CCc1nc2ccc(N3CCN(CC(=O)N4CCC([18F])C4)CC3)cn2c1N(C)c1nc(-c2ccc(F)cc2)c(C#N)s1` (stereo not drawn), the Drug uptake in [1] was 10 % ID/g.

As for `CCc1nc2ccc(N3CCN(CC(=O)N4CC(F)C4)CC3)cn2c1N(C)c1nc(-c2ccc(F)cc2)c(C#N)s1`, the inhibition constant (Ki) on Autotaxin stood at 41 nM.

Consider `CCc1nc2ccc(N3CCN(CC(=O)N4CCC([18F])CC4)CC3)cn2c1N(C)c1nc(-c2ccc(F)cc2)c(C#N)s1`, for which the Drug uptake in series [1] is on record as 10 % ID/g.

As for `CCc1nc2ccc(N3CCN(CC(=O)N4CC[C@@H](F)C4)CC3)cn2c1N(C)c1nc(-c2ccc(F)cc2)c(C#N)s1`, the Ki at Autotaxin came out at 14 nM.

As for `CCc1nc2ccc(N3CCN(CC(=O)N4CCN(CCF)CC4)CC3)cn2c1N(C)c1nc(-c2ccc(F)cc2)c(C#N)s1`, the Ki at Autotaxin came to 13 nM.

Take `[2H]C([2H])(F)C([2H])([2H])N1CCN(C(=O)CN2CCN(c3ccc4nc(CC)c(N(C)c5nc(-c6ccc(F)cc6)c(C#N)s5)n4c3)CC2)CC1`: on Autotaxin, the Ki was found to be 19 nM.

Regarding `CCc1nc2ccc(N3CCN(CC(=O)N4CCN(CC[18F])CC4)CC3)cn2c1N(C)c1nc(-c2ccc(F)cc2)c(C#N)s1`, the Drug uptake is reported as 6.4 % ID/g in [2] and 6.6 % ID/g in series [3].

`CCc1nc2ccc(N3CCN(CC(=O)N4CC(CF)C4)CC3)cn2c1N(C)c1nc(-c2ccc(F)cc2)c(C#N)s1`: the Ki at Autotaxin stood at 14 nM.

`CCc1nc2ccc(N3CCN(CC(=O)N4CC(OCCF)C4)CC3)cn2c1N(C)c1nc(-c2ccc(F)cc2)c(C#N)s1`: the Ki at Autotaxin was 17 nM.

Consider `CCc1nc2ccc(N3CCN(CC(=O)N4CC[C@H](F)C4)CC3)cn2c1N(C)c1nc(-c2ccc(F)cc2)c(C#N)s1`, for which the Ki at Autotaxin amounted to 32 nM.

Turning to `CCc1nc2ccc(N3CCN(CC(=O)N4CC(O)C4)CC3)cn2c1N(C)c1nc(-c2ccc(F)cc2)c(C#N)s1`, the Ki at Autotaxin was 30 nM.

As for `[2H]C([2H])([18F])C([2H])([2H])N1CCN(C(=O)CN2CCN(c3ccc4nc(CC)c(N(C)c5nc(-c6ccc(F)cc6)c(C#N)s5)n4c3)CC2)CC1`, the Drug uptake result was “Active” in series [4]; “Active” in series [5]; “Active” in series [6]; 92% in series [7]; “Not Active” in series [8]; 84% in [9].

For the compound `CCc1nc2ccc(N3CCN(CC(=O)N4CCC(C[18F])C4)CC3)cn2c1N(C)c1nc(-c2ccc(F)cc2)c(C#N)s1` (stereo not drawn), the Drug uptake result is “Active” in [4]; “Active” in series [5]; “Active” in series [6]; “Active” in [10]; “Not Active” in series [11]; “Active” in [8].

On to `CCc1nc2ccc(N3CCN(CC(=O)N4CCC(F)C4)CC3)cn2c1N(C)c1nc(-c2ccc(F)cc2)c(C#N)s1` (stereo not drawn), for which, on Autotaxin, the Ki was 15 nM.

The record behind these values is ChEMBL document CHEMBL5030559, “Imaging Autotaxin In Vivo with 18F-Labeled Positron Emission Tomography Ligands” (J Med Chem, 2021).
